Legend:
[1] = system: interleukin 10 (IL-10); assay: IL-10 in PBMCs in the presence or absence of RSV (Example 45); type: cell-based, human; settings: in the presence or absence of RSV (MOI 0.1); for IL-10 response, Donor A and Donor E: 0.1-2.0 mg/mL, FIGS. 20A, 20B; for IL-10 response, Donor B and Donor E: FIGS. 19A, 19B
Experimental: Specifically, 3′SL and 6′SL are added individually at concentrations of 0.1 mg/mL, 0.2 mg/mL, or 0.5 mg/mL or in combination (Combo 1=1 part 3′SL to 1 part 6′SL; and Combo 2=1 part 3′SL to 2 parts 6′SL), at total concentrations of 0.2 mg/mL, 0.4 mg/mL, or 1.0 mg/mL to fresh PBMCs and incubated at 37° C. in 5% CO2 to pretreat the cells for approximately 24 hours. In a separate experiment, LNnT and 2′FL are added individually at concentrations of 0.1 mg/mL, 0.2 mg/mL, 1.0 mg/mL or 2.0 mg/mL to fresh PBMCs and incubated at 37° C. in 5% CO2 to pretreat the cells for approximately 24 hours. Lactose is included as a carbohydrate control. Matched endotoxin unit concentration controls are included to allow differentiation of ingredient effects from inherent low levels of endotoxin. After approximately 24 hours, some variables are then incubated with RSV at a multiplicity of infection (MOI) of 0.1 for approximately 1 hour at 37° C. in 5% in CO2. Uninfected control variables are incubated with medium for approximately 1 hour at 37° C. in 5% CO2. After approximately 1 hour, fresh medium alone or containing the appropriate concentrations of LNnT alone, 2′FL alone, 3′SL or 6′SL individually or in combination, lactose alone, or endotoxin alone is added to the appropriate variables, and the PBMCs were incubated for 48 hours at 37° C. in 5% CO2. Supernatants are collected at 24 and 48 hours post-infection. Cytokines are measured in supernatants for each variable at 24 and 48 hours to assess the effects of HMOs on the early immune response to RSV. Cytokines are measured using custom Bio-Plex Human cytokine kits from Bio-Rad.

[2] = system: interferon-inducible protein 10 (IP-10); assay: IP-10 in RSV-infected peripheral blood mononuclear cells (Example 39); type: cell-based, human; settings: for IP-10 level compared with uninfected controls / IP-10 in virus-infected variables: FIGS. 3-6; for IP-10 in virus-infected variables: both donors, 24 hour pretreatment, 0.1-0.5 mg/mL (LNnT 0.1-1 mg/mL); for reduction of inflammation caused by RSV: pretreatment for 24 hours, measured by decrease in IP-10
Experimental: (§1) Specifically, either 3′SL or 6′SL is added, at concentrations of 0.1 mg/mL, 0.2 mg/mL, or 0.5 mg/mL to fresh peripheral blood mononuclear cells and incubated at 37° C. in 5% CO2 to pretreat the cells for approximately 24 hours. LNnT is added, at concentrations of 0.1 mg/mL, 0.2 mg/mL, or 1 mg/mL to fresh peripheral blood mononuclear cells and incubated at 37° C. in 5% CO2 to pretreat the cells for approximately 24 hours. Lactose is included as a carbohydrate control. Matched endotoxin unit concentration controls are included to allow differentiation of ingredient effects from inherent low levels of endotoxin. Some variables are then incubated with RSV at a multiplicity of infection (MOI) of 0.1 for approximately 1 hour at 37° C. in 5% in CO2. Uninfected control variables are incubated with medium for approximately 1 hour at 37° C. in 5% CO2. After approximately one hour, fresh medium alone, or fresh medium containing the appropriate concentration of 3′SL, 6′SL, LNnT, lactose, or endotoxin is added to the appropriate tubes and the cells are incubated for 48 hours at 37° C. in 5% CO2. Supernatants are collected at 24 and 48 hours post-infection.
(§2) Cytokines are measured in supernatants for each variable at 24 and 48 hours to assess the effects of HMOs on the early immune response to RSV. Cytokines are measured using custom Bio-Plex Human cytokine kits from Bio-Rad. Results for interferon-inducible protein 10 (IP-10, also known as CXCL 10) are shown in FIGS. 3 and 4 for 3′SL and 6′SL, and in FIGS. 5 and 6 for LNnT. IP-10 is a CXC chemokine that attracts, binds to and activates the CXCR3 receptor on natural killer cells and memory T cells. IP-10 is expressed by monocytes and a number of other cells, and is induced by interferon. A positive correlation exists between RSV clinical disease severity in children (as measured by: length of hospital stay, fever, and number of days supplemental O2 is required) and serum IP-10. Therefore, a decrease in IP-10 signals a decrease in severity of RSV disease experienced.

[3] = system: interleukin 10 (IL-10); assay: IL-10 in peripheral blood mononuclear cells with or without RSV (Example 39); type: cell-based, human; settings: in the presence or absence of RSV; FIGS. 7-10
Experimental: as §1, with “After approximately one hour, fresh medium alone, or fresh medium containing the appropriate concentration of 3′SL, 6′SL, LNnT, lactose, or endotoxin is added to the appropriate tubes and the cells are incubated for 48 hours at 37° C. in 5% CO2. Supernatants are collected at 24 and 48 hours post-infection.” left out
Cytokines are measured in supernatants for each variable at 24 and 48 hours to assess the effects of HMOs on the early immune response to RSV. Cytokines are measured using custom Bio-Plex Human cytokine kits from Bio-Rad. […] A positive correlation exists between RSV clinical disease severity in children (as measured by: length of hospital stay, fever, and number of days supplemental O2 is required) and serum IP-10. […]

[4] = system: monocyte-derived cytokines; assay: Monocyte-derived cytokines in peripheral blood mononuclear cells (Example 39); type: cell-based, human
Experimental: as §1, §2

[5] = system: respiratory syncytial virus (RSV); assay: RSV replication (RSV NS1 copy numbers) in 16HBE lung epithelial cells (Example 42); type: cell-based; settings: RSV MOI 1, FIGS. 13-15
Experimental: Specifically, on Day −1, 16HBE cell monolayers are seeded in sufficient numbers to reach 95-100% confluence in 24 well places by Day 0. On day 0, either 2′FL (in concentrations of 1 μg/mL, 5 μg/mL, 10 μg/mL, 50 μg/mL, 100 μg/mL, 500 μg/mL, and 1000 μg/mL), LNnT (in concentrations of 10 μg/mL, 100 μg/mL, or 1000 μg/mL), or 3′SL (in concentrations of 5 μg/mL, 10 μg/mL, 50 μg/mL, 100 μg/mL, 500 μg/mL, and 1000 μg/mL) is added and incubated for approximately 24 hours at 37° C. in 5% CO2. On day 1, the cell supernatants are removed and the monolayers are incubated with medium alone or medium plus Respiratory Syncytial Virus (RSV) for approximately 1 hour at 37° C. in 5% CO2 at a multiplicity of infection (MOI) of 1. After approximately 1 hour, fresh medium alone or containing the appropriate concentrations of 2′FL 3′SL, or LNnT is added to the appropriate wells, and the cells are incubated for 48 hours at 37° C. in 5% CO2. On day 3, supernatants and cell lysates are collected separately, aliquotted and stored frozen at −70° C. for later analysis. Cell lysates are analyzed by TaqMan qRTPCR to assess viral replication through measurement of RSV NS1 copy numbers.

[6] = system: H1N1 influenza A virus (IAV); assay: H1N1 influenza A virus replication (IAV M gene copy numbers) in 16HBE cells (Example 43); type: cell-based; settings: 16HBE lung epithelial cells; MOI 0.01; FIG. 16
[7] = system: H1N1 influenza virus; type: cell-based; settings: at a concentration of 1 mg/mL
[8] = system: H1N1 influenza virus; type: cell-based; settings: 10 mg/mL; MDCK cells; FIG. 1
[9] = system: H1N1 influenza A virus (IAV); assay: H1N1 influenza A virus replication (IAV M gene copy numbers) in Calu3 cells (Example 43); type: cell-based; settings: Calu3 lung epithelial cells; MOI 0.01; FIG. 17
[10] = system: interferon-inducible protein 10 (IP-10); assay: IP-10 in RSV-infected PBMCs, 6′SL (Example 44); type: cell-based, human; settings: 0.1 mg/mL to 1 mg/mL; RSV MOI 1.0; 4 donors; 48 hours; FIG. 18
Experimental: Specifically, 6′SL was added individually at concentrations of 0.1 mg/mL, 0.2 mg/mL, 0.5 mg/mL or 1.0 mg/mL to fresh peripheral blood mononuclear cells (PCMBs) and incubated at 37° C. in 5% CO2 to pretreat the cells for approximately 24 hours. After approximately 24 hours, some variables are then incubated with RSV at a multiplicity of infection (MOI) of 1.0 for approximately 1 hour at 37° C. in 5% in CO2. Uninfected control variables are incubated with medium for approximately 1 hour at 37° C. in 5% CO2. After approximately 1 hour, fresh medium alone or containing the appropriate concentrations of 6′SL is added to the appropriate variables, and the PBMCs are incubated for 48 hours at 37° C. in 5% CO2. Supernatants are collected at 48 hours post-infection. Cytokines are measured in supernatants for each variable at 48 hours to assess the effects of HMOs on the early immune response to RSV.
Interferon-inducible Protein 10 (IP-10, also known as CXCL10) is a CXC chemokine that attracts, binds to and activates the CXCR3 receptor on Natural Killer Cells and Memory T cells. IP-10 is expressed by monocytes and a number of other cells, and is induced by interferon. A positive correlation exists between RSV clinical disease severity in children (as measured by: length of hospital stay, fever, and number of days supplemental O2 was required) and serum IP-10. […]

[11] = in the presence or absence of the virus

SMILES	IL-10 response, Donor A and Donor E [1]	IL-10 response, Donor B and Donor E [1]	IP-10 level compared with uninfected controls ([2]; RSV MOI 0.1)	IP-10 in virus-infected variables ([2]; RSV MOI 0.1)	reduction of inflammation caused by RSV [2]	IL-10 concentration [3]	production of monocyte-derived cytokines (IL-10, MIP-1β, Interferon-γ, IL-8, IL-1α, IL-1β, IL-1ra) [4, 11]	concentrations that decrease viral load or inhibit RSV replication (RSV NS1 copies) [5]	concentrations that decrease viral load or inhibit IAV replication (IAV M gene copies) [6]	anti-viral activity against H1N1 influenza virus [7]	RSV-induced IP-10, Donor B ([2]; RSV MOI 0.1, Donor B)	RSV-induced IP-10, Donor E ([2]; RSV MOI 0.1, Donor E)	production of monocyte-derived cytokines (MIP-1β, Interferon-γ, IL-8, IL-1ra) [4, 11]	inhibition of virus infectivity [8]	production of monocyte-derived cytokines (IL-10, MIP-1β, Interferon-γ, IL-8, IL-1α, IL-1β, IL-1ra) ([4]; in the absence of the virus)	concentrations that decrease viral load or inhibit IAV replication (IAV M gene copies) [9]	IP-10 in RSV infected PBMCs [10]
OC[C@H]1O[C@@H](O[C@H]2[C@H](O)[C@@H](O)C(O)O[C@@H]2CO)[C@H](O)[C@@H](O)[C@H]1O (stereo partly drawn) [lactose, Lactose, reference compound]	do not increase IL-10	do not increase IL-10															
CC(=O)N[C@H]1[C@H](O[C@H]2[C@@H](O)[C@@H](CO)O[C@@H](O[C@H]3[C@H](O)[C@@H](O)C(O)O[C@@H]3CO)[C@@H]2O)O[C@H](CO)[C@@H](O[C@@H]2O[C@H](CO)[C@H](O)[C@H](O)[C@H]2O)[C@@H]1O (mixture of isomers) [LNnT, lacto-N-neotetraose]	clear dose-dependent increase in IL-10 response		reduce IP-10 to levels found in uninfected controls	clearly downregulates IP-10	effective in reducing inflammation caused by RSV	increases IL-10 concentration in a dose-dependent manner	immunomodulatory	≥ 10 µg/mL	≥ 1 µg/mL								
CC(=O)N[C@H]1[C@H]([C@H](O)[C@H](O)CO)O[C@@](O[C@H]2[C@@H](O)[C@@H](CO)O[C@@H](O[C@H]3[C@H](O)[C@@H](O)C(O)O[C@@H]3CO)[C@@H]2O)(C(=O)O)C[C@@H]1O (stereo partly drawn) [3′SL, 3′-sialyllactose]		do not increase IL-10			effective in reducing inflammation caused by RSV					inhibited	not effective	downregulates RSV-induced IP-10	immunomodulatory				
CC(=O)N[C@H]1[C@H]([C@H](O)[C@H](O)CO)O[C@@](OC[C@H]2O[C@@H](O[C@H]3[C@H](O)[C@@H](O)[C@H](O)O[C@@H]3CO)[C@H](O)[C@@H](O)[C@H]2O)(C(=O)O)C[C@@H]1O [6′SL, 6′-sialyllactose]		clear dose-dependent increase in IL-10 response	reduce IP-10 to levels found in uninfected controls	clearly downregulates IP-10	effective in reducing inflammation caused by RSV									approximately 60%	immunomodulatory	≥ 10 µg/mL	dose-dependent downregulation of IP-10

From US12280069B2, “Methods of using human milk oligosaccharides for improving airway respiratory health” (priority 2010, dated 2025)
